These results are taken from PubChem BioAssay (NCI).

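Method: 48-hour compound exposure of cells in 96-well plates, five concentrations, linear interpolation of endpoints. Here, GI50 denotes the concentration required for 50% inhibition of growth. The concentration for full growth arrest is given as TGI.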

Holding throughout (assay): NCI anticancer screen, dose series, 48 h
Assay [1] has as its system DU-145 prostate.
Assay [2] deals with K-562 leukemia.
The subject of assay [3] is KM12 colon.
Assay [4] concerns M14 melanoma.
Assay [5] concerns NCI-H23 lung.
The subject of assay [6] is OVCAR-4 ovarian.
The test system of assay [7] is SNB-19 CNS.
In assay [8] the test system is SNB-75 CNS.
Assay [9] deals with SW-620 colon.
Assay [10] deals with TK-10 renal.

As for `OCCOCn1nc(-c2ccccc2)nc1-c1cnccn1`, the TGI in [1], in assay [2], in assay [3], in [4], in assay [5] and in [6] was above 100 µM throughout. Further, the TGI in assay [7], in assay [8], in [9] and in assay [10] was above 100 µM in each case.
With `CCCCCCCC(=O)SCC/C=C/[C@@H]1CC(=O)NCc2cccc(n2)CN(Cc2ccc(Cl)cc2)CC(=O)N[C@@H](C(C)C)C(=O)O1`, the GI50 is 10.9 µM in [1]; 11 µM in assay [2]; 9.4 µM in [3]; 9.1 µM in assay [4]; 13.7 µM in assay [5]; 21.7 µM in [6]. For the same compound, the GI50 was 22.6 µM in assay [7], 5.74 µM in assay [8], 18 µM in assay [9] and 2.81 µM in [10]. For the same compound, the TGI in assay [1] is above 100 µM; in [2] it was above 100 µM; in assay [3], 65.1 µM; in [4], above 100 µM; in assay [5] it was above 100 µM; in assay [6], above 100 µM. Besides, the TGI is above 100 µM in [7], above 100 µM in [8], above 100 µM in assay [9] and 23.6 µM in [10].
Regarding `Cc1cc(CC(O)(C(F)(F)F)C(F)(F)F)cc(CC(O)(C(F)(F)F)C(F)(F)F)n1`, the TGI in [1] was 7.94 µM; in [2], above 100 µM; in assay [3], 5.13 µM; in assay [4], 12 µM; in assay [5] it was 5.31 µM; in assay [6] it was 12.6 µM. The TGI is above 100 µM in assay [7], 6.58 µM in assay [8], above 100 µM in assay [9] and 13.6 µM in assay [10].
As for `Cc1cc(C)c2nc(Nc3nc(C)c(C)c(=O)[nH]3)nc(C)c2c1`, the GI50 in assay [1] is 3.8 µM; in [2] it was 2.53 µM; in [3] it was 3.02 µM; in assay [4], 2.58 µM; in assay [5], 3.44 µM; in assay [6], 3.27 µM. For the same compound, the GI50 in assay [7] was 3.19 µM; in assay [8], 2.9 µM; in assay [9] it was 3.12 µM; in assay [10] it was 3.05 µM. The TGI in assay [1] stood at 24.1 µM; in assay [2] it was 11.1 µM; in [3], 23.9 µM; in assay [4], 8.79 µM; in [5] it was 20.4 µM; in assay [6], 15.6 µM. Moreover, the TGI turned out to be 14.3 µM in [7], 13.6 µM in assay [8], 15.5 µM in [9] and 17.9 µM in [10].
In the case of `CC1CCC(O)/C=C/C(=O)OC(C)C(O)/C=C/C(=O)O1` (stereo not drawn), the TGI in [1], in assay [2], in assay [3], in assay [4], in assay [5] and in [6] was above 100 µM each time. The TGI in assay [7], in assay [8], in assay [9] and in [10] was above 100 µM each time.
Turning to `O=C(O)/C=C/C(=O)Nc1cccc2c1-c1ccccc1C2=O`, the TGI is above 81.3 µM in assay [1]; above 64.1 µM in assay [2]; above 100 µM in [3]; above 100 µM in assay [4]; above 100 µM in assay [5]; above 100 µM in assay [6]. Moreover, the TGI in [7] is above 100 µM; in [8] it was above 58.4 µM; in assay [9], above 100 µM; in assay [10], above 29.7 µM.
Take `COc1ccc(/C(C#N)=C/c2nc3c(N4CCOCC4)nc(Cl)nc3n2C)cc1OC`: the GI50 is below 0.01 µM in [1]; below 0.01 µM in [2]; below 0.01 µM in assay [3]; below 0.01 µM in assay [4]; below 0.01 µM in assay [5]; below 0.0105 µM in [6]. Moreover, the GI50 is below 0.01 µM in [7], below 0.01 µM in assay [8], below 0.01 µM in assay [9] and 0.924 µM in [10]. Also, the TGI in [1] turned out to be 1.3 µM; in assay [2], 11.4 µM; in assay [3] it was 1.26 µM; in assay [5] it was 2.74 µM; in assay [6] it was 1.93 µM; in assay [7] it was 2.91 µM. The TGI in assay [8] was below 0.01 µM; in [9], 1.63 µM; in [10], 2.33 µM.
Regarding `CC(C)n1c2c(c3ccccc3c1=O)C(=O)c1ccccc1-2`, the TGI in [1], in assay [2], in [3], in [4], in assay [5] and in assay [6] was above 100 µM in each case. Further, the TGI in assay [7], in [8], in [9] and in [10] was above 100 µM throughout.
As for `CCSc1sc(-c2ccc(C)cc2)nc1[P+](c1ccccc1)(c1ccccc1)c1ccccc1`, the GI50 was 0.346 µM in [1]; 0.195 µM in assay [2]; 0.281 µM in assay [3]; 0.342 µM in assay [4]; 0.273 µM in [5]; 0.275 µM in assay [6]. For the same compound, the GI50 is 0.332 µM in [7], 0.192 µM in assay [8], 0.332 µM in assay [9] and 0.271 µM in assay [10]. Moreover, the TGI is 1.35 µM in assay [1]; 1.44 µM in [2]; 1.16 µM in [3]; 1.51 µM in [4]; 0.881 µM in assay [5]; 1.05 µM in [6]. In addition, the TGI in assay [7] was determined as 1.39 µM; in [8], 0.802 µM; in [9], 1.34 µM; in [10] it was 1.48 µM.
On to `COC1=CC(=O)c2c(O)c3c(c(O)c2C1=O)CC(C)(O)OC3` (stereo not drawn), for which the TGI was 15 µM in [1]; above 45.3 µM in [2]; above 35.8 µM in [3]; 4.53 µM in assay [4]; 8.42 µM in assay [5]; 4.51 µM in assay [6]. The TGI was 13.4 µM in [7], above 67.6 µM in [8], 12.7 µM in assay [9] and 34.4 µM in assay [10].
As to `Nc1nc(Cl)cc2c1ncn2C1OC(CO)C(O)C1O` (stereo not drawn), the GI50 in assay [1], in [2], in assay [3], in assay [4], in assay [5] and in assay [6] was above 100 µM throughout. Also, the GI50 in assay [7], in assay [8], in [9] and in assay [10] was above 100 µM throughout. The TGI in assay [1], in assay [2], in assay [3], in [4], in assay [5] and in assay [6] was above 100 µM each time. The TGI in assay [7], in assay [8], in assay [9] and in assay [10] was above 100 µM in each case.
`COc1ccc(NC(=O)CC(=O)n2nc(-c3ccccc3)c(N=Nc3ccc(C)cc3)c2-c2ccccc2)cc1`: the TGI in assay [1] was above 100 µM; in assay [2], above 100 µM; in [3], above 100 µM; in assay [4], above 100 µM; in assay [5] it was 54 µM; in [6], 53.8 µM. Moreover, the TGI in assay [7] is 49.4 µM; in assay [8], 41.2 µM; in assay [9], above 100 µM; in [10], 55.1 µM.
As for `N=C(N)c1ccc(-c2ccc(-c3ccco3)o2)cc1`, the GI50 in assay [1] is 6.25 µM; in assay [2], 2.66 µM; in assay [3] it was 3.16 µM; in assay [4], 1.9 µM; in assay [5] it was 11 µM; in assay [6], 6.42 µM. In addition, the GI50 in [7] was 9.44 µM; in assay [8], 10.7 µM; in assay [9], 1.92 µM; in assay [10], 4.33 µM. Also, the TGI in assay [1] came out at 19 µM; in assay [2], 10.4 µM; in assay [3], 10.4 µM; in assay [4], 3.77 µM; in [5] it was 26.6 µM; in assay [6], 24.1 µM. For the same compound, the TGI in assay [7] stood at 23.2 µM; in [8], 23.2 µM; in [9], 4.09 µM; in assay [10] it was 15.6 µM.
As for `CC(=O)O/N=C1\C=Cc2c(no[n+]2[O-])C1=O`, the TGI in assay [1] is 32 µM; in assay [2], above 100 µM; in [3], 33.7 µM; in assay [4], 33.2 µM; in assay [5], 35.5 µM; in assay [6], 31.5 µM. For the same compound, the TGI in assay [7] is above 100 µM; in assay [8] it was 35.5 µM; in [9], 9.04 µM; in assay [10], 29 µM.
Regarding `COC1=C(NC(C)=O)C(=O)c2nc3n(c2C1=O)CCC3`, the TGI was 35.8 µM in assay [1]; above 65.1 µM in assay [2]; above 57.8 µM in [3]; 32.8 µM in assay [4]; 39 µM in [5]; 30.7 µM in assay [6]. Besides, the TGI in assay [7] is 67.6 µM; in [8] it was 41.2 µM; in assay [9], 42.4 µM; in [10], above 66.6 µM.
On to `COc1cccc(-n2cnc3c(N/N=C/c4ccncc4)ncnc32)c1`, for which the GI50 in assay [1] is 17.3 µM; in [2], 10.9 µM; in assay [3] it was 7.84 µM; in [4], 10.3 µM; in [5], above 25 µM; in [6], 11.6 µM. Besides, the GI50 was above 25 µM in assay [7], 7.45 µM in assay [8], above 25 µM in [9] and 9.59 µM in [10]. Besides, the TGI in assay [1], in assay [2], in assay [3], in [4], in assay [5] and in [6] was above 25 µM each time. Also, the TGI in assay [7], in [8], in assay [9] and in [10] was above 25 µM each time.
As to `O=C(O)c1cc(/C=C/c2ccc(O)c(O)c2)ccc1O`, the TGI in assay [1] is above 100 µM; in [2], 44.9 µM; in [3], above 100 µM; in [4], above 100 µM; in assay [5] it was above 100 µM; in assay [6], above 100 µM. For the same compound, the TGI in [7], in assay [8] and in assay [10] was above 100 µM each time.
With `CC(=O)c1c[nH]c2ccc(-c3ccnc(Nc4ccc(NC(=O)c5cccc(F)c5)c(CN5CCOCC5)c4)n3)cc12`, the GI50 in assay [1] is 0.185 µM; in [2], 0.303 µM; in [3], 0.0892 µM; in [4], 0.188 µM; in assay [5] it was 0.195 µM; in [6], 0.307 µM. Moreover, the GI50 in assay [7] is 0.218 µM; in assay [8] it was 0.042 µM; in assay [9], 0.206 µM; in assay [10] it was 0.268 µM. Also, the TGI was above 100 µM in assay [1]; above 100 µM in assay [2]; 1.35 µM in [3]; 0.794 µM in assay [4]; 1.09 µM in assay [5]; 3.07 µM in assay [6]. Moreover, the TGI in [7] was found to be 9.8 µM; in assay [8], 0.342 µM; in assay [9], 4.82 µM; in assay [10], 1.95 µM.
For `O=C(NCCc1ccccc1)C(c1csc2ccccc12)N(C(=O)CCl)c1ccc(-c2cnco2)cc1` (stereo not drawn), the GI50 in assay [1] is 0.461 µM; in assay [2], 0.509 µM; in assay [3], 0.291 µM; in assay [4], 1.38 µM; in assay [5], 0.0209 µM; in assay [6], 1.7 µM. Moreover, the GI50 in assay [7] is 1.7 µM; in [8], 0.502 µM; in assay [9], 0.391 µM; in assay [10], 1.75 µM. Besides, the TGI in assay [1] is 2.3 µM; in [2] it was above 20.7 µM; in assay [3], 0.898 µM; in [4], 2.83 µM; in assay [5] it was 0.0508 µM; in assay [6] it was 5.14 µM. The TGI in assay [7] came out at 3.16 µM; in assay [8], 0.99 µM; in assay [9], 1.29 µM; in assay [10] it was 3.21 µM.
